Where “and” joins values, the source holds several entries; their conditions need not be identical. Identical values can stand only once.
Legend:
[1] = General design summary of signals and cytotoxicity (Fig. 1a)
Text: P-CyPt is designed to (1) offer activatable near-infrared (NIR) FL and PA signals for bimodality imaging through ALP-mediated in situ self-assembly and (2) release CDDP for on-demand therapy via GSH-triggered disassembly (Fig. 1a). […] After systemic administration, P-CyPt as a small molecule can extravasate and penetrate deeply into tumor tissues (Fig. 1b). In tumor tissues that are membrane-bound ALP positive, rapid dephosphorylation of P-CyPt by the membrane-bound ALP generates CyPt, switching on NIR FL (λem = 710 nm) and PA signals (λ = 700 nm); moreover, CyPt with increased hydrophobicity is susceptible to self-assembly into Pt(IV) nanoparticles (Pt^IVNPs), which turns on another PA signal (λ = 750 nm) resulting from the aggregation-caused bathochromic shift. The on-site formed Pt^IVNPs can anchor on the cell membranes, which attenuate diffusion, prolong retention, and enhance translocation into cells[32],[33]. Within tumor cells, the abundant endogenous GSH can reduce Pt(IV) into Pt(II), producing negatively charged Cy-COOH that promotes NPs disassembly and accelerates release of CDDP intracellularly. This process dramatically raises intracellular CDDP’s concentration while depletes GSH’s level to effectively kill tumor cells. Moreover, the disassembly of Pt^IVNPs into Cy-COOH further increases NIR FL (called as “ON-ON”) as the aggregation-caused quenching (ACQ) effect is eliminated; however, the PA signal at 750 nm is turned off but the PA signal at 700 nm is kept at “ON” state. The sequential switches in NIR FL and PA bimodal imaging signals can allow P-CyPt to reliably monitor the ALP-triggered in situ self-assembly and GSH-driven disassembly process in vivo, facilitating to guide precise chemotherapy of tumors.

[2] = Urine and faeces analysis by ICP-OES (Pt element); type: in vivo, mice; parameters: Pt in urine / Pt in feces: unit not given beside the values; settings: for Pt in urine: Fig.6g
[3] = Urine and faeces analysis by ICP-OES (Pt element); type: in vivo, mice; parameters: Pt in urine / Pt in feces: unit not given beside the values; settings: for Pt accumulatively cleared (urine + faeces): during 12 h
Procedure: page 47: determined using ELISA kits according to manufacturer 's protocol. Determination of the blood circulation half-life. […], or CDDP (at a dose of 2.25 mg kg-1 Pt) was i.v. injected into healthy female BALB/c nude mice (6-8 weeks old). […] The collected blood was digested with concentrated HNO3 (65-70%, 2 mL) and HCl (36~38%, 1 mL) at 90 °C overnight. The residues were then diluted with 5 mL 2% HNO3 and 5% HCl solution, and the concentrations of Pt element were determined by ICP-OES, which were further applied to calculate the contents of Pt element in the blood. The plot of the percentage of Pt element remained in the blood versus injection time to yield the pharmacokinetic time. Urine and Faeces analysis. […] Urine and faeces were collected at 2 (for 0-2 h), 4 (for 2-4 h), 8 (for 4- 8 h) and 12 h (for […]), which were diluted in methanol and centrifuged at 3,600 × g for 10 min, followed by filtering via a 0.22 μm syringe filter. The solutions were analyzed by HPLC (660 nm detection) to characterize all the mCy-containing compounds. Using the established standard curves for […] Cy-COOH, the amount of each compound in the urine and faeces could be calculated, which were further applied to determine the percentage of them in the urine and faeces. The data were summarized in Supplementary Tables 5-8. […] Urine and faeces were collected and weighed. The urine and faeces were digested with concentrated HNO3 (65~70%) and HCl (36~38%) at 90 °C for 24 h. The solution was diluted to 5 mL 2% HNO3 and 5% HCl solution, and the concentration of Pt element was measured by ICP-OES, which was further applied to calculate the percentage of Pt in corresponding urine and faeces. The data were summarized in Supplementary Tables 9 and 10. 47

[4] = feces collected 8-12 h, mouse-2
[5] = feces collected 8-12 h, mouse-1
[6] = feces collected 8-12 h, mouse-3
[7] = i.v. 2.25 mg kg-1 Pt, 0-2 h, ICP-OES
[8] = urine collected 0-2 h, mean of 3 mice
[9] = urine collected 2-4 h, mean of 3 mice
[10] = urine collected 4-8 h, mean of 3 mice
[11] = urine collected 8-12 h, mean of 3 mice
[12] = urine collected 8-12 h, mouse-1
[13] = urine collected 8-12 h, mouse-2
[14] = urine collected 8-12 h, mouse-3

[NH2][Pt]([NH2])([Cl])[Cl] [CDDP, cisplatin]
Cytotoxicity [1]: High
Percentage of Pt element excreted to the faeces ([2]; 8-12 h): 2.70 ± 0.44%
Pt in urine ([2]; 8-12 h, single mice): 3.482 and 4.062 and 2.903
Pt in feces ([2]; Fig.6h, 8-12 h, single mice): 2.646 and 3.172 and 2.294
Pt in feces [2, 4]: 3.172
Percentage of Pt element excreted to the faeces ([3]; 2-4 h): 2.60 ± 0.45%
Percentage of Pt element excreted to the urine ([3]; 2-4 h): 10.94 ± 1.14%
Percentage of Pt element excreted to the faeces ([3]; 4-8 h): 4.55 ± 0.60%
Percentage of Pt element excreted to the urine ([3]; 4-8 h): 5.45 ± 0.94%
Percentage of Pt element excreted to the urine ([3]; 8-12 h): 3.48 ± 0.58%
Pt in urine ([3]; Fig.6g, 0-2 h, mean of 3 mice): 15.456
Pt in urine ([3]; Fig.6g, 0-2 h, single mice): 14.877 and 18.189 and 13.302
Pt in urine ([3]; Fig.6g, 2-4 h, mean of 3 mice): 10.936
Pt in urine ([3]; Fig.6g, 2-4 h, single mice): 10.576 and 12.209 and 10.023
Pt in urine ([3]; Fig.6g, 4-8 h, mean of 3 mice): 5.452
Pt in urine ([3]; Fig.6g, 4-8 h, single mice): 5.332 and 6.452 and 4.572
Pt in urine ([3]; Fig.6g, 8-12 h, mean of 3 mice): 3.482
Pt in feces ([3]; Fig.6h, 0-2 h, mean of 3 mice): 0.193
Pt in feces ([3]; Fig.6h, 0-2 h, single mice): 0.190 and 0.242 and 0.148
Pt in feces ([3]; Fig.6h, 2-4 h, mean of 3 mice): 2.596
Pt in feces ([3]; Fig.6h, 2-4 h, single mice): 2.468 and 3.099 and 2.222
Pt in feces ([3]; Fig.6h, 4-8 h, mean of 3 mice): 4.548
Pt in feces ([3]; Fig.6h, 4-8 h, single mice): 4.452 and 5.187 and 4.005
Pt in feces ([3]; Fig.6h, 8-12 h, mean of 3 mice): 2.704
Pt accumulatively cleared (urine + faeces) [3]: ~ 45.3%
Pt in feces ([3]; feces collected 0-2 h, mouse-1): 0.190
Pt in feces ([3]; feces collected 0-2 h, mouse-2): 0.242
Pt in feces ([3]; feces collected 0-2 h, mouse-3): 0.148
Pt in feces ([3]; feces collected 2-4 h, mouse-1): 2.468
Pt in feces ([3]; feces collected 2-4 h, mouse-2): 3.099
Pt in feces ([3]; feces collected 2-4 h, mouse-3): 2.222
Pt in feces ([3]; feces collected 4-8 h, mouse-1): 4.452
Pt in feces ([3]; feces collected 4-8 h, mouse-2): 5.187
Pt in feces ([3]; feces collected 4-8 h, mouse-3): 4.005
Pt in feces [3, 5]: 2.646
Pt in feces [3, 6]: 2.294
Percentage of Pt element excreted to the faeces [3, 7]: 0.19 ± 0.046%
Percentage of Pt element excreted to the urine [3, 7]: 15.46 ± 2.49%
Pt in urine, mean [3, 8]: 15.456
Pt in urine ([3]; urine collected 0-2 h, mouse-1): 14.877
Pt in urine ([3]; urine collected 0-2 h, mouse-2): 18.189
Pt in urine ([3]; urine collected 0-2 h, mouse-3): 13.302
Pt in urine, mean [3, 9]: 10.936
Pt in urine ([3]; urine collected 2-4 h, mouse-1): 10.576
Pt in urine ([3]; urine collected 2-4 h, mouse-2): 12.209
Pt in urine ([3]; urine collected 2-4 h, mouse-3): 10.023
Pt in urine, mean [3, 10]: 5.452
Pt in urine ([3]; urine collected 4-8 h, mouse-1): 5.332
Pt in urine ([3]; urine collected 4-8 h, mouse-2): 6.452
Pt in urine ([3]; urine collected 4-8 h, mouse-3): 4.572
Pt in urine, mean [3, 11]: 3.482
Pt in urine [3, 12]: 3.482
Pt in urine [3, 13]: 4.062
Pt in urine [3, 14]: 2.903

CC1(C)C(/C=C/C2=C3Oc4cc(O)c(Cl)cc4C=C3CCC2)=[N+](CCCNC(=O)[C@@H](Cc2ccccc2)NC(=O)[C@@H](Cc2ccccc2)NC(=O)CCC(=O)[O][Pt]([NH2])([NH2])([OH])([Cl])[Cl])c2ccccc21 [CyPt]
Cytotoxicity [1]: Low
FL at 710 nm [1]: High
PA at 700 nm [1]: High
PA at 750 nm [1]: Low
Percentage of Pt element excreted to the faeces ([2]; 8-12 h): 3.69 ± 0.77%
Percentage of Pt element excreted to the faeces ([3]; 2-4 h): 16.51 ± 1.34%
Percentage of Pt element excreted to the faeces ([3]; 4-8 h): 21.52 ± 1.73%
Percentage of Pt element excreted to the faeces [3, 7]: 0.63 ± 0.21%

CC1(C)C(/C=C/C2=C3Oc4cc(OP(=O)(O)O)c(Cl)cc4C=C3CCC2)=[N+](CCCNC(=O)[C@@H](Cc2ccccc2)NC(=O)[C@@H](Cc2ccccc2)NC(=O)CCC(=O)[O][Pt]([NH2])([NH2])([OH])([Cl])[Cl])c2ccccc21 [P-CyPt]
Cytotoxicity [1]: Low
FL at 710 nm [1]: Low
PA at 700 nm [1]: Low
PA at 750 nm [1]: Low
Percentage of Pt element excreted to the faeces ([2]; 8-12 h): 4.40 ± 0.52%
Pt in urine ([2]; 8-12 h, single mice): 3.228 and 4.327 and 2.669
Pt in feces ([2]; Fig.6h, 8-12 h, single mice): 4.215 and 4.995 and 4.002
Pt in feces [2, 4]: 4.995
Percentage of Pt element excreted to the faeces ([3]; 2-4 h): 5.92 ± 0.64%
Percentage of Pt element excreted to the urine ([3]; 2-4 h): 13.38 ± 1.45%
Percentage of Pt element excreted to the faeces ([3]; 4-8 h): 16.94 ± 1.87%
Percentage of Pt element excreted to the urine ([3]; 4-8 h): 9.24 ± 1.49%
Percentage of Pt element excreted to the urine ([3]; 8-12 h): 3.41 ± 0.84%
Pt in urine ([3]; Fig.6g, 0-2 h, mean of 3 mice): 15.772
Pt in urine ([3]; Fig.6g, 0-2 h, single mice): 15.461 and 17.665 and 14.190
Pt in urine ([3]; Fig.6g, 2-4 h, mean of 3 mice): 13.380
Pt in urine ([3]; Fig.6g, 2-4 h, single mice): 13.090 and 14.953 and 12.095
Pt in urine ([3]; Fig.6g, 4-8 h, mean of 3 mice): 9.236
Pt in urine ([3]; Fig.6g, 4-8 h, single mice): 9.456 and 10.608 and 7.644
Pt in urine ([3]; Fig.6g, 8-12 h, mean of 3 mice): 3.408
Pt in feces ([3]; Fig.6h, 0-2 h, mean of 3 mice): 0.386
Pt in feces ([3]; Fig.6h, 0-2 h, single mice): 0.346 and 0.489 and 0.323
Pt in feces ([3]; Fig.6h, 2-4 h, mean of 3 mice): 5.927
Pt in feces ([3]; Fig.6h, 2-4 h, single mice): 5.543 and 6.667 and 5.573
Pt in feces ([3]; Fig.6h, 4-8 h, mean of 3 mice): 16.944
Pt in feces ([3]; Fig.6h, 4-8 h, single mice): 16.548 and 18.982 and 15.301
Pt in feces ([3]; Fig.6h, 8-12 h, mean of 3 mice): 4.404
Pt accumulatively cleared (urine + faeces) [3]: ~ 69.4%
Pt in feces ([3]; feces collected 0-2 h, mouse-1): 0.346
Pt in feces ([3]; feces collected 0-2 h, mouse-2): 0.489
Pt in feces ([3]; feces collected 0-2 h, mouse-3): 0.323
Pt in feces ([3]; feces collected 2-4 h, mouse-1): 5.543
Pt in feces ([3]; feces collected 2-4 h, mouse-2): 6.667
Pt in feces ([3]; feces collected 2-4 h, mouse-3): 5.573
Pt in feces ([3]; feces collected 4-8 h, mouse-1): 16.548
Pt in feces ([3]; feces collected 4-8 h, mouse-2): 18.982
Pt in feces ([3]; feces collected 4-8 h, mouse-3): 15.301
Pt in feces [3, 5]: 4.215
Pt in feces [3, 6]: 4.002
Percentage of Pt element excreted to the faeces [3, 7]: 0.38 ± 0.090%
Percentage of Pt element excreted to the urine [3, 7]: 15.78 ± 1.76%
Pt in urine, mean [3, 8]: 15.772
Pt in urine ([3]; urine collected 0-2 h, mouse-1): 15.461
Pt in urine ([3]; urine collected 0-2 h, mouse-2): 17.665
Pt in urine ([3]; urine collected 0-2 h, mouse-3): 14.190
Pt in urine, mean [3, 9]: 13.380
Pt in urine ([3]; urine collected 2-4 h, mouse-1): 13.090
Pt in urine ([3]; urine collected 2-4 h, mouse-2): 14.953
Pt in urine ([3]; urine collected 2-4 h, mouse-3): 12.095
Pt in urine, mean [3, 10]: 9.236
Pt in urine ([3]; urine collected 4-8 h, mouse-1): 9.456
Pt in urine ([3]; urine collected 4-8 h, mouse-2): 10.608
Pt in urine ([3]; urine collected 4-8 h, mouse-3): 7.644
Pt in urine, mean [3, 11]: 3.408
Pt in urine [3, 12]: 3.228
Pt in urine [3, 13]: 4.327
Pt in urine [3, 14]: 2.669
